# Patent US20050112573A1, “Method of detecting toxic substance” (priority 2001, published 2005)
# System: yeast genes (level of expressed mRNA)
# Assay: DNA chip analysis of expressed mRNA of yeast genes after 2 h culture with a toxic chemical substance
# Assay type: cell-based, Saccharomyces cerevisiae S288C
# Outline: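 Values are treated-to-control fluorescence ratios from a whole-yeast-genome DNA chip (65° C, over 12 h hybridization) using Cy3/Cy5-labelled cDNA from mRNA. Log-phase S288C cells in YPD at 25° C were exposed 2 h to a toxicant at sublethal, growth-inhibiting concentration.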
smiles,measurement,setting,value
"C=CC=O [(14), acrolein]",level of expressed mRNA in the presence of chemical substance/in its absence,gene YAL012W,0.9
same,The level of expressed mRNA in the presence of chemical substance/absence: YAL014C,gene YAL014C,1.8
same,The level of expressed mRNA in the presence of chemical substance/absence: YAL017W,gene YAL017W,1.1
same,The level of expressed mRNA in the presence of chemical substance/absence: YAL018C,gene YAL018C,1.0
same,level of expressed mRNA in the presence of chemical substance/in its absence,gene YAL038W,0.5
same,level of expressed mRNA in the presence of chemical substance/in its absence,gene YAL044C,1.4
same,The level of expressed mRNA in the presence of chemical substance/absence: YAL049C,gene YAL049C,2.0
same,level of expressed mRNA in the presence of chemical substance/in its absence,gene YAL054C,1.3
same,The level of expressed mRNA in the presence of chemical substance/absence: YAR047C,gene YAR047C,1.3
same,The level of expressed mRNA in the presence of chemical substance/absence: YAR064W,gene YAR064W,1.1
same,level of expressed mRNA in the presence of chemical substance/in its absence,gene YAR071W,1.1
same,level of expressed mRNA in the presence of chemical substance/in its absence,gene YBL001C,1.5
same,The level of expressed mRNA in the presence of chemical substance/absence: YBL044W,gene YBL044W,0.9
same,The level of expressed mRNA in the presence of chemical substance/absence: YBL100C,gene YBL100C,0.9
same,The level of expressed mRNA in the presence of chemical substance/absence: YBR012C,gene YBR012C,0.9
same,The level of expressed mRNA in the presence of chemical substance/absence: YBR013C,gene YBR013C,2.5
same,level of expressed mRNA in the presence of chemical substance/in its absence,gene YBR014C,1.2
same,level of expressed mRNA in the presence of chemical substance/in its absence,gene YBR023C,0.8
same,level of expressed mRNA in the presence of chemical substance/in its absence,gene YBR029C,0.9
same,level of expressed mRNA in the presence of chemical substance/in its absence,gene YBR035C,1.3
same,level of expressed mRNA in the presence of chemical substance/in its absence,gene YBR050C,1.3
same,The level of expressed mRNA in the presence of chemical substance/absence: YBR051W,gene YBR051W,1.0
same,The level of expressed mRNA in the presence of chemical substance/absence: YBR063C,gene YBR063C,1.7
same,The level of expressed mRNA in the presence of chemical substance/absence: YBR066C,gene YBR066C,1.1
same,level of expressed mRNA in the presence of chemical substance/in its absence,gene YBR068C,1.8
same,level of expressed mRNA in the presence of chemical substance/in its absence,gene YBR111C,1.6
same,The level of expressed mRNA in the presence of chemical substance/absence: YBR124W,gene YBR124W,1.0
same,level of expressed mRNA in the presence of chemical substance/in its absence,gene YBR126C,0.7
same,The level of expressed mRNA in the presence of chemical substance/absence: YBR129C,gene YBR129C,1.6
same,level of expressed mRNA in the presence of chemical substance/in its absence,gene YBR145W,2.2
same,The level of expressed mRNA in the presence of chemical substance/absence: YBR162C,gene YBR162C,0.5
same,level of expressed mRNA in the presence of chemical substance/in its absence,gene YBR183W,1.3
same,level of expressed mRNA in the presence of chemical substance/in its absence,gene YBR222C,0.5
same,The level of expressed mRNA in the presence of chemical substance/absence: YBR255W,gene YBR255W,1.1
same,The level of expressed mRNA in the presence of chemical substance/absence: YBR281C,gene YBR281C,0.9
same,The level of expressed mRNA in the presence of chemical substance/absence: YBR287W,gene YBR287W,0.8
same,level of expressed mRNA in the presence of chemical substance/in its absence,gene YBR299W,1.4
same,level of expressed mRNA in the presence of chemical substance/in its absence,gene YCL009C,0.7
same,The level of expressed mRNA in the presence of chemical substance/absence: YCL044C,gene YCL044C,1.0
same,The level of expressed mRNA in the presence of chemical substance/absence: YCL056C,gene YCL056C,2.2
same,level of expressed mRNA in the presence of chemical substance/in its absence,gene YCL064C,0.8
same,The level of expressed mRNA in the presence of chemical substance/absence: YCR007C,gene YCR007C,1.7
same,level of expressed mRNA in the presence of chemical substance/in its absence,gene YCR037C,0.8
same,level of expressed mRNA in the presence of chemical substance/in its absence,gene YCR048W,0.9
same,level of expressed mRNA in the presence of chemical substance/in its absence,gene YCR098C,1.1
same,level of expressed mRNA in the presence of chemical substance/in its absence,gene YDL022W,0.8
same,The level of expressed mRNA in the presence of chemical substance/absence: YDL046W,gene YDL046W,1.2
same,The level of expressed mRNA in the presence of chemical substance/absence: YDL089W,gene YDL089W,1.2
same,The level of expressed mRNA in the presence of chemical substance/absence: YDL173W,gene YDL173W,2.1
same,The level of expressed mRNA in the presence of chemical substance/absence: YDL193W,gene YDL193W,1.1
same,The level of expressed mRNA in the presence of chemical substance/absence: YDL233W,gene YDL233W,1.1
same,level of expressed mRNA in the presence of chemical substance/in its absence,gene YDR009W,1.5
same,level of expressed mRNA in the presence of chemical substance/in its absence,gene YDR019C,1.6
same,The level of expressed mRNA in the presence of chemical substance/absence: YDR071C,gene YDR071C,2.0
same,The level of expressed mRNA in the presence of chemical substance/absence: YDR078C,gene YDR078C,1.8
same,The level of expressed mRNA in the presence of chemical substance/absence: YDR090C,gene YDR090C,0.9
same,The level of expressed mRNA in the presence of chemical substance/absence: YDR109C,gene YDR109C,1.0
same,The level of expressed mRNA in the presence of chemical substance/absence: YDR128W,gene YDR128W,1.0
same,The level of expressed mRNA in the presence of chemical substance/absence: YDR133C,gene YDR133C,0.6
same,The level of expressed mRNA in the presence of chemical substance/absence: YDR140W,gene YDR140W,3.2
same,The level of expressed mRNA in the presence of chemical substance/absence: YDR221W,gene YDR221W,1.0
same,The level of expressed mRNA in the presence of chemical substance/absence: YDR250C,gene YDR250C,0.9
same,The level of expressed mRNA in the presence of chemical substance/absence: YDR271C,gene YDR271C,1.4
same,The level of expressed mRNA in the presence of chemical substance/absence: YDR278C,gene YDR278C,0.9
same,The level of expressed mRNA in the presence of chemical substance/absence: YDR281C,gene YDR281C,1.2
same,The level of expressed mRNA in the presence of chemical substance/absence: YDR316W,gene YDR316W,0.7
same,The level of expressed mRNA in the presence of chemical substance/absence: YDR338C,gene YDR338C,1.0
same,The level of expressed mRNA in the presence of chemical substance/absence: YDR366C,gene YDR366C,1.4
same,level of expressed mRNA in the presence of chemical substance/in its absence,gene YDR380W,0.6
same,level of expressed mRNA in the presence of chemical substance/in its absence,gene YDR410C,1.3
same,The level of expressed mRNA in the presence of chemical substance/absence: YDR421W,gene YDR421W,1.2
same,The level of expressed mRNA in the presence of chemical substance/absence: YDR425W,gene YDR425W,1.3
same,The level of expressed mRNA in the presence of chemical substance/absence: YDR485C,gene YDR485C,1.1
same,level of expressed mRNA in the presence of chemical substance/in its absence,gene YDR487C,2.5
same,level of expressed mRNA in the presence of chemical substance/in its absence,gene YDR502C,0.8
same,The level of expressed mRNA in the presence of chemical substance/absence: YDR504C,gene YDR504C,1.3
same,level of expressed mRNA in the presence of chemical substance/in its absence,gene YEL011W,1.5
same,level of expressed mRNA in the presence of chemical substance/in its absence,gene YEL020C,1.0
same,The level of expressed mRNA in the presence of chemical substance/absence: YEL044W,gene YEL044W,0.6
same,level of expressed mRNA in the presence of chemical substance/in its absence,gene YER026C,1.1
same,level of expressed mRNA in the presence of chemical substance/in its absence,gene YER069W,1.3
same,The level of expressed mRNA in the presence of chemical substance/absence: YER092W,gene YER092W,1.2
same,The level of expressed mRNA in the presence of chemical substance/absence: YER182W,gene YER182W,1.9
same,The level of expressed mRNA in the presence of chemical substance/absence: YFL042C,gene YFL042C,1.2
same,level of expressed mRNA in the presence of chemical substance/in its absence,gene YFR015C,3.1
same,The level of expressed mRNA in the presence of chemical substance/absence: YFR026C,gene YFR026C,1.0
same,The level of expressed mRNA in the presence of chemical substance/absence: YFR056C,gene YFR056C,0.6
same,level of expressed mRNA in the presence of chemical substance/in its absence,gene YGL001C,1.1
same,level of expressed mRNA in the presence of chemical substance/in its absence,gene YGL022W,0.5
same,level of expressed mRNA in the presence of chemical substance/in its absence,gene YGL039W,0.9
same,The level of expressed mRNA in the presence of chemical substance/absence: YGL041C,gene YGL041C,1.2
same,The level of expressed mRNA in the presence of chemical substance/absence: YGL045W,gene YGL045W,1.1
same,The level of expressed mRNA in the presence of chemical substance/absence: YGL057C,gene YGL057C,1.5
same,The level of expressed mRNA in the presence of chemical substance/absence: YGL088W,gene YGL088W,1.4
same,level of expressed mRNA in the presence of chemical substance/in its absence,gene YGL104C,1.0
same,level of expressed mRNA in the presence of chemical substance/in its absence,gene YGL134W,1.1
same,level of expressed mRNA in the presence of chemical substance/in its absence,gene YGL154C,1.1
same,The level of expressed mRNA in the presence of chemical substance/absence: YGL183C,gene YGL183C,1.7
same,level of expressed mRNA in the presence of chemical substance/in its absence,gene YGL209W,1.6
same,The level of expressed mRNA in the presence of chemical substance/absence: YGL223C,gene YGL223C,0.9
same,level of expressed mRNA in the presence of chemical substance/in its absence,gene YGL253W,0.5
same,The level of expressed mRNA in the presence of chemical substance/absence: YGR038W,gene YGR038W,1.4
same,level of expressed mRNA in the presence of chemical substance/in its absence,gene YGR060W,0.8
same,The level of expressed mRNA in the presence of chemical substance/absence: YGR139W,gene YGR139W,0.9
same,The level of expressed mRNA in the presence of chemical substance/absence: YGR156W,gene YGR156W,1.6
same,The level of expressed mRNA in the presence of chemical substance/absence: YGR198W,gene YGR198W,0.8
same,The level of expressed mRNA in the presence of chemical substance/absence: YGR210C,gene YGR210C,0.8
same,The level of expressed mRNA in the presence of chemical substance/absence: YGR211W,gene YGR211W,0.4
same,The level of expressed mRNA in the presence of chemical substance/absence: YGR237C,gene YGR237C,0.6
same,The level of expressed mRNA in the presence of chemical substance/absence: YGR243W,gene YGR243W,1.9
same,The level of expressed mRNA in the presence of chemical substance/absence: YGR250C,gene YGR250C,1.3
same,The level of expressed mRNA in the presence of chemical substance/absence: YGR266W,gene YGR266W,0.8
same,The level of expressed mRNA in the presence of chemical substance/absence: YGR277C,gene YGR277C,1.5
same,level of expressed mRNA in the presence of chemical substance/in its absence,gene YGR282C,1.0
